Test results published in patent US20120165230A1, “BIOLOGICALLY PRODUCED CYCLIC AFFINITY TAGS” (LanthioPep B.V., priority 2009, published 2012).

Test system: L. lactis MG1363
Assay: Antimicrobial activity: growth inhibition in two-fold dilution series in microwell plate, OD600 after 6 hours
Format: cell-based, Lactococcus lactis
Conditions: supernatant treated with trypsin to cleave off leader, two-fold dilutions
Experimental: FIG. 2. Antimicrobial activity of a truncated nisin mutant containing HPQF (SEQ ID NO:7) in ring C. Lactococcus lactis containing a first plasmid encoding NisB, NisT and NisC and a second plasmid encoding […] (SEQ ID NO:44) was induced. The supernatant was treated with trypsin to cleave off the leader peptide. Series of two-fold dilutions were made in a microwell plate and the peptide's capacity to inhibit the growth of L. lactis MG1363 was tested by measuring OD 600 after six hours of incubation. ∘: control with PBS, ▪: truncated nisin mutant, ▾: supernatant of nisin A-producing L. lactis NZ9700.
The leader was cleaved off with trypsin and the antimicrobial activity was measured as follows: In a microwell plate, 200 μl of supernatant of nisin fusion strain and in other wells, 200 μl of control (positive, e.g., filtered sup of NZ9700 and negative) solutions was added to the wells of the first column. 100 μl medium was added to the remaining empty wells. For each row, 100 μl from the first column was added to the second and, after mixing, from the second to the third, etc., leading to two-fold dilution steps. 100 μl of sensitive strain. MG1363 was added to all wells at low density, OD600: 0.05-0.1. After 6 hours, OD600 was measured.

In the case of “ITSISLCTPGCKTHPQFCNMKEQKLISEED [H14, P15, Q16, F17, ΔG18 mutant of nisin (1-22) with internal strep-tag, coupled to external myc-tag EQKLISEED]”, the “antimicrobial activity (inhibition of growth of L. lactis MG1363)” value (FIG. 2) is reported as “clearly has antimicrobial activity” and the “antimicrobial activity (inhibition of growth of L. lactis MG1363)” value (FIG. 2, listed as truncated nisin mutant) is reported as “still has activity”.
